Molecules are shown by their SMILES.

The target in this assay is T1, cyclin D1/cdk 4 enzyme (Homo sapiens, UniProt P11802).
T1 construct: made in house; host or cells: Sf9 insect cells, recombinant baculovirus
In words: CDK4 ELISA kinase assay (phospho-Rb ser 795 detection). The note with it: In Vitro Enzyme Assay, cyclin D1/cdk 4, read-out: CDK4 IC50. The class given is biochemical. Here is the method: • 1. High-binding ELISA microtiter plates (Costar) were coated with 40 μl of the kinase substrate (GST fusion of C-terminal fragment of the retinoblastoma susceptibility gene product) diluted to 10 μg/ml in tris-buffered saline (TBS), overnight at 4° C. • 2. Non-specific binding sites were blocked for 1 hour at 4° C. with Superblock in TBS (Pierce), and the plates rinsed with water. • 3. For the screen, 1.5 μl of test compound (200 μg/ml stock in 20% DMSO/20 mM HEPES, pH 7.5) was added to each well. Final dose of the test compound in the assay was 10 ug/ml. […] The kinase reaction (30 μl) was dispensed into each well. Reactions contained 200 μM ATP, 0.5 mg/ml bovine serum albumin (BSA; Sigma), and 0.5 μl partially purified cyclin D1/cdk 4 enzyme*. The enzyme complex is expressed in insect cells (Sf9) infected with recombinant baculovirus and partially purified using ammonium sulfate fractionation. Reaction volumes were adjusted to 30 μl with kinase assay buffer (50 mM HEPES, pH 7.5, 10 mM MgCl2, 5% glycerol, 10 mM 2-mercaptoethanol). • *: For CDK2 assay, 1.0 μl cyclin E/CDK2 enzyme (diluted 1:1000 in kinase assay buffer) was used. The enzyme is isolated from insect cells (Sf9) infected with recombinant baculovirus and partially purified using ammonium sulfate fractionation. For CDK1 assay, 0.08 μl cyclin B/CDK1 enzyme [New England BioLabs; the enzyme is isolated from insect cells (Sf9) infected with recombinant baculovirus carrying human cdc 2 and human cyclin B] was used.
[…] • 5. Plates were incubated at 30° C. for 1 hour. • 6. The reaction mixture was removed by aspiration and replaced with 250 μl TBS containing 0.1% Tween-20 and 5% nonfat dry milk (blocking buffer). The plates were incubated at 4° C. for 1 hour. • 7. The blocking buffer was removed and replaced with 50 μl of the primary antibody [anti-phospho-Rb ser 795 (New England BioLabs) diluted 1:1000 in blocking buffer]. Incubation was at 4° C. for 16-20 hours. • 8. The wells were rinsed 3 times with 250 μl of TBS containing 0.1% Tween-20 followed by the addition of 50 μl of secondary antibody [anti-rabbit IgG conjugated to horseradish peroxidase (Amersham Life Science) diluted 1:1000 in blocking buffer]. • 9. After a 1 hour incubation at room temperature, the wells were rinsed 3 times with 250 μl of TBS/0.1% Tween 20. • 10. TMB (3,3′,5,5′-tetramethylbenzidine dihydrochloride) substrate solution (100 μl; Pierce) was added to each well and the color development reaction allowed to proceed 5-10 minutes at room temperature with shaking. The reaction was stopped by the addition of 2N sulfuric acid (100 μl) and the absorbance values read at 450 nm in a microplate reader (Molecular Devices). Analysis of Results: • 1. The percentage of the absorbance value in wells containing the test compound relative to control wells (no test agent) was determined. • 2. IC50 values of selected compounds were determined from inhibition curves, after subtracting background values (no substrate).

T1 sequence (P11802 whole entry, species assumed): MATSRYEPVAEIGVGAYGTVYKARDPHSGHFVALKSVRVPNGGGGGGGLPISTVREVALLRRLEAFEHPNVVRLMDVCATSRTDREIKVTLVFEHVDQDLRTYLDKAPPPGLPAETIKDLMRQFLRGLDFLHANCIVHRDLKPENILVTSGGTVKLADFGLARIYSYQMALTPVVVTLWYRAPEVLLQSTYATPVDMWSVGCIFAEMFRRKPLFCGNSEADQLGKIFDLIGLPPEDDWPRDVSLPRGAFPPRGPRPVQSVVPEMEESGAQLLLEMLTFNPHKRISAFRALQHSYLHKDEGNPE
T1 sequence (P24385 whole entry partner, species assumed): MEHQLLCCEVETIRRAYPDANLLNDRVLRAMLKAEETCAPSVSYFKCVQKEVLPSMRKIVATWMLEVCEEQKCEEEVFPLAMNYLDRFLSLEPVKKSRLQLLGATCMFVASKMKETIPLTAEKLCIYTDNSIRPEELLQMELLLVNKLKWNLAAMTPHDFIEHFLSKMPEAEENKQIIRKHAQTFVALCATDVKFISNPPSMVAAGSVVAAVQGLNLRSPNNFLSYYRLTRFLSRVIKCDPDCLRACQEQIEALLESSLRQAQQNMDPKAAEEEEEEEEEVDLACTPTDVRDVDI

As for `CCCN(CCC)Cc1ccc(NC=C2C(=O)NC(=O)c3ccccc32)cc1` [Example 614, 4-[(4-Dipropylaminomethyl-phenylamino)-methylene]-4H-isoquinoline-1,3-dione], the IC50 – broadly, the concentration at which inhibition is half-maximal – is 25.3 µM.

For the compound `O=C1NC(=O)c2ccccc2C1=CNc1ccc(CN2CCCC(O)C2)cc1` (stereo not drawn) [Example 615, 4-{[4-(3-Hydroxy-piperidin-1-ylmethyl)-phenylamino]-methylene}-4H-isoquinoline-1,3-dione], the IC50 was determined as 25.7 µM.

With `COCCN(C)Cc1ccc(N/C=C2\C(=O)NC(=O)c3ccccc32)cc1` [Example 616, 4-[(4-{[(2-Methoxy-ethyl)-methyl-amino]-methyl}-phenylamino)-methylene]-4H-isoquinoline-1,3-dione], the IC50 was 14.8 µM.

On to `O=C1NC(=O)c2ccccc2C1=CNc1ccncc1` [Example 618, 4-(Pyridin-4-ylaminomethylene)-4H-isoquinoline-1,3-dione], for which the IC50 was 40.1 µM.

As for `O=C1NC(=O)c2ccccc2C1=CNc1cccc2c(O)cccc12` [Example 619, 4-[(5-Hydroxy-naphthalen-1-ylamino)-methylene]-4H-isoquinoline-1,3-dione], the IC50 is 14.3 µM.

With `O=C1NC(=O)c2ccc(C=CCc3ccccc3)cc2C1=CNc1ccc(CN2CCCC2)cc1` [Example 622, 6-(3-Phenyl-propenyl)-4-[(4-pyrrolidin-1-ylmethyl-phenylamino)-methylene]-4H-isoquinoline-1,3-dione], the IC50 worked out at 37.2 µM.

Regarding `N#CCc1ccc(NC=C2C(=O)NC(=O)c3ccc(-c4cccc5ccccc45)cc32)cc1` [Example 623, {4-[(6-Naphthalen-1-yl-1,3-dioxo-2,3-dihydro-1H-isoquinolin-4-ylidenemethyl)-amino]-phenyl)-acetonitrile], the IC50 came to 25.1 µM.

On to `N#CCc1ccc(NC=C2C(=O)NC(=O)c3ccc(-c4ccc5ccccc5c4)cc32)cc1` [Example 624, {4-[(6-Naphthalen-2-yl-1,3-dioxo-2,3-dihydro-1H-isoquinolin-4-ylidenemethyl)-amino]-phenyl}-acetonitrile], for which the IC50 stood at 13 µM.

`N#CCc1ccc(NC=C2C(=O)NC(=O)c3ccc(-c4cccc5cccnc45)cc32)cc1` [Example 625, {4-[(1,3-Dioxo-6-quinolin-8-yl-2,3-dihydro-1H-isoquinolin-4-ylidenemethyl)-amino]-phenyl}-acetonitrile]: the IC50 was found to be 14.8 µM.

Turning to `N#CCc1ccc(NC=C2C(=O)NC(=O)c3ccc(-c4csc5ccccc45)cc32)cc1` [Example 628, {4-[(6-Benzo[b]thiophen-3-yl-1,3-dioxo-2,3-dihydro-1H-isoquinolin-4-ylidenemethyl)-amino]-phenyl}-acetonitrile], the IC50 is 33.6 µM.

In the case of `N#CCc1ccc(NC=C2C(=O)NC(=O)c3ccc(-c4cc[nH]c4)cc32)cc1` [Example 631, (4-{[1,3-Dioxo-6-(1H-pyrrol-3-yl)-2,3-dihydro-1H-isoquinolin-4-ylidenemethyl]-amino}-phenyl)-acetonitrile], the IC50 is 4.2 µM.

Consider `NS(=O)(=O)c1ccc(CNC=C2C(=O)NC(=O)c3ccc(-c4cccc5cccnc45)cc32)cc1` [Example 633, 4-{[(1,3-Dioxo-6-quinolin-8-yl-2,3-dihydro-1H-isoquinolin-4-ylidenemethyl)-amino]-methyl}-benzenesulfonamide], for which the IC50 came to 32.3 µM.

For the compound `O=C1NC(=O)c2ccc(-c3cccc4ccccc34)cc2C1=CNCc1ccc(O)c(O)c1` [Example 640, 4-[(3,4-Dihydroxy-benzylamino)-methylene]-6-naphthalen-1-yl-4H-isoquinoline-1,3-dione], the IC50 was 21.9 µM.

Take `N#CCc1ccc(NC=C2C(=O)NC(=O)c3ccc(C=Cc4ccccn4)cc32)cc1` [Example 648, (4-{[1,3-Dioxo-6-(2-pyridin-2-yl-vinyl)-2,3-dihydro-1H-isoquinolin-4-ylidenemethyl]-amino}-phenyl)-acetonitrile]: the IC50 is 18.6 µM.

`N#CCc1ccc(NC=C2C(=O)NC(=O)c3ccc(C=Cc4ccncc4)cc32)cc1` [Example 649, (4-{[1,3-Dioxo-6-(2-pyridin-4-yl-vinyl)-2,3-dihydro-1H-isoquinolin-4-ylidenemethyl]-amino}-phenyl)-acetonitrile]: the IC50 stood at 20 µM.

Turning to `N#CCc1ccc(NC=C2C(=O)NC(=O)c3ccc(C=Cc4ccccc4)cc32)cc1` [Example 650, {4-[(1,3-Dioxo-6-styryl-2,3-dihydro-1H-isoquinolin-4-ylidenemethyl)-amino]-phenyl}-acetonitrile], the IC50 was found to be 16.6 µM.

Take `NS(=O)(=O)c1ccc(CNC=C2C(=O)NC(=O)c3ccc(C=CCn4ccnc4)cc32)cc1` [Example 657, 4-({[6-(3-Imidazol-1-yl-propenyl)-1,3-dioxo-2,3-dihydro-1H-isoquinolin-4-ylidenemethyl]-amino}-methyl)-benzenesulfonamide]: the IC50 was found to be 2.2 µM.

`O=C1NC(=O)c2ccc(C=CCN3CCNCC3)cc2C1=CNCc1ccc(O)c(O)c1` [Example 666, 4-[(3,4-Dihydroxy-benzylamino)-methylene]-6-(3-piperazin-1-yl-propenyl)-4H-isoquinoline-1,3-dione]: the IC50 came to 2.5 µM.

On to `CN1CCN(c2ccc(NC=C3C(=O)NC(=O)c4ccc(-c5ccc6ccccc6c5)cc43)cc2)CC1` [Example 668, 4-{[4-(4-Methyl-piperazin-1-yl)-phenylamino]-methylene}-6-naphthalen-2-yl-4H-isoquinoline-1,3-dione], for which the IC50 stood at 21.9 µM.

As to `CN1CCN(c2ccc(NC=C3C(=O)NC(=O)c4ccc(-c5cc6ccccc6s5)cc43)cc2)CC1` [Example 670, 6-Benzo[b]thiophen-2-yl-4-{[4-(4-methyl-piperazin-1-yl)-phenylamino]-methylene}-4H-isoquinoline-1,3-dione], the IC50 came to 39.8 µM.

As to `CN1CCN(c2ccc(NC=C3C(=O)NC(=O)c4ccc(C=Cc5ccc6ccccc6c5)cc43)cc2)CC1` [Example 674, 4-{[4-(4-Methyl-piperazin-1-yl)-phenylamino]-methylene}-6-(2-naphthalen-2-yl-vinyl)-4H-isoquinoline-1,3-dione], the IC50 stood at 11.7 µM.

In the case of `CN1CCN(c2ccc(NC=C3C(=O)NC(=O)c4ccc(C=Cc5ccccc5)cc43)cc2)CC1` [Example 677, 4-{[4-(4-Methyl-piperazin-1-yl)-phenylamino]-methylene}-6-styryl-4H-isoquinoline-1,3-dione], the IC50 came out at 14.3 µM.

Take `Cc1ncsc1C=Cc1ccc2c(c1)C(=CNc1ccc(N3CCN(C)CC3)cc1)C(=O)NC2=O` [Example 681, 4-{[4-(4-Methyl-piperazin-1-yl)-phenylamino]-methylene}-6-[2-(4-methyl-thiazol-5-yl)-vinyl]-4H-isoquinoline-1,3-dione]: the IC50 was 17.7 µM.

Regarding `COc1ccccc1-c1ccc2c(c1)C(=CNc1ccc(N3CCN(C)CC3)cc1)C(=O)NC2=O` [Example 683, 6-(2-Methoxy-phenyl)-4-{[4-(4-methyl-piperazin-1-yl)-phenylamino]-methylene}-4H-isoquinoline-1,3-dione], the IC50 was 32.9 µM.

With `CN1CCN(c2ccc(NC=C3C(=O)NC(=O)c4ccc(-c5ccccc5F)cc43)cc2)CC1` [Example 684, 6-(2-Fluoro-phenyl)-4-{[4-(4-methyl-piperazin-1-yl)-phenylamino]-methylene}-4H-isoquinoline-1,3-dione], the IC50 was 12.4 µM.

For the compound `CN1CCN(c2ccc(NC=C3C(=O)NC(=O)c4ccc(-c5cccc(C(=O)O)c5)cc43)cc2)CC1` [Example 686, 3-(4-{[4-(4-Methyl-piperazin-1-yl)-phenylamino]-methylene}-1,3-dioxo-1,2,3,4-tetrahydro-isoquinolin-6-yl)-benzoic acid], the IC50 turned out to be 6.4 µM.

Regarding `CN1CCN(c2ccc(NC=C3C(=O)NC(=O)c4ccc(-c5ccc(C(F)(F)F)cc5)cc43)cc2)CC1` [Example 687, 4-{[4-(4-Methyl-piperazin-1-yl)-phenylamino]-methylene}-6-(4-trifluoromethyl-phenyl)-4H-isoquinoline-1,3-dione], the IC50 was determined as 20.9 µM.

The record behind these values is US7713994B2 (Wyeth LLC, priority 2005, dated 2010).
